From US7723021B2, “Methods for treating lentivirus infections” (The J. David Gladstone Institutes, priority 2003, dated 2010) come the findings set out here.

For test [1], the system named is Vif-mediated depletion of APOBEC3G-HA in 293T cells. Nature of the test: Proteasome inhibitor panel in 293T cells transiently transfected with APOBEC3G-HA and Vif, immunoblot. The format is cell-based. To be noted: 15 hours. The protocol: 293T cells were transfected with the indicated amounts of expression vector DNA using the calcium phosphate method. Lysis buffers used for immunoblotting were (1) 100-400 mM NaCl, 50 mM Hepes, 0.2% NP40, 0-5 mM EDTA, 0.1 mM PMSF, plus complete protease inhibitor cocktail (Roche)(1 tablet/50 ml buffer) or (2) 50 mM Hepes, pH 7.2, 135 mM NaCl, 1% Triton X-100, 0.5% deoxycholate, 10% glycerol, 1 mM EDTA, 1× protease inhibitor cocktail (Calbiochem). Samples were analyzed using standard SDS-PAGE techniques.
(§1) For the proteasome inhibitor experiments in transiently transfected cells, 293T cells were transiently transfected with 0.1 μg of APOBEC3G-HA DNA, 2 μg of control vector DNA and 2 μg of either pcDNA3.1 Vif DNA vector or an additional 2 μg of control vector DNA. Twenty-four hours after transfection, the cells were treated with the indicated inhibitor and harvested 15 hours later. For the proteasome inhibitor experiments using infected H9 cells, H9 cells were infected by spinoculation as described above. Forty-four hours after infection, the cells were treated for 16 hours with either dimethylsulfoxide (DMSO) (0.1%) or 0.25 μM epoxomicin. All of the inhibitors (ALLN, MG132, epoxomicin, Calpain Inhibitor III, and clasto-Lactacystin-β-Lactone) were purchased from CalBiochem and were dissolved in DMSO.
To confirm this finding in a different system, a similar experiment was performed using 293T cells transiently transfected with an APOBEC3G-HA expression vector and either a Vif expression vector or a control vector. Twenty-four hours after transfection the cells were treated with a panel of different proteasome inhibitors for a 15-hour period. It was observed that the broadly acting proteasome inhibitors MG132 (12.5 μM) and ALLN (25 μM) as well as the more specific proteasome inhibitor clasto-Lactacystin-β-Lactone ([…], 20 μM) enhanced the levels of APOBEC3G-HA in the presence of Vif when compared to the diluent control sample (0.1% DMSO) (FIG. 8C, lanes 7 through 12).
(§2) FIG. 8A-C. Vif shortens the half-life of APOBEC3G, and proteasome inhibitors partially block the intracellular depletion of APOBEC3G-HA. (A) Pulse-Chase Radiolabeling. HEK 293 cells transiently transfected with APOBEC3G-HA and Vif or control vector DNA were pulse-labeled for 30 min. The initial pulse-labeled (t=0) samples were harvested, and the remaining samples were incubated with chase media for the indicated time points. After immunoprecipitation with anti-HA antibody, the samples were analyzed by SDS-PAGE and the gels were subjected to autoradiography. The relative intensity of the bands were quantified and the Vif (+) and Vif (−) samples were normalized to 1 and graphed (FIG. 8, right side). The T1/2 of APOBEC3G was 1.9 hours in the presence of Vif and 10 hours in the absence of Vif. (B) Proteasome inhibitor studies using infected H9 cells. Mock or HIV-1 wt-infected H9 cells were treated with the broadly active proteasome inhibitor epoxomicin (0.25 μM) or DMSO (0.1%) 44 hours after infection. Sixteen hours following treatment, the cells were harvested; and whole cell lysates were prepared by boiling the cells in Laemmli lysis buffer. Note that Epoxomicin caused an increase in endogenous APOBEC3G levels in the infected sample (compare lane 2 with lane 1). (C) Proteasome inhibitor studies using transiently-transfected 293T cells. Twenty-four hours following transfection of 293T cells with 0.1 μg APOBEC3G and 2 μg Vif or control vector DNA, the cells were treated with the indicated concentration of inhibitor for 15 hours. APOBEC3G-HA levels were elevated in the presence of the proteasome inhibitors MG132, ALLN, and clasto-lactacystin-β-lactone (lanes 8-11), but not in the presence of calpain inhibitor III (lane 12).

Test [2] has as its system APOBEC3G in peripheral blood lymphocytes. The test is described as follows: PBLs incubated with stimulant for 48 hours, Western blot for APOBEC3G (Example 2). The format is cell-based, Human. To be noted: incubated with stimulant for 48 hours versus unstimulated. On the procedure:
Human peripheral blood lymphocytes (PBLs) were isolated from blood and then incubated with anti-CD3 antibody (α-CD3), anti-CD28 antibody (α-CD28), IL-9, IL-12, IL-13, IL-15, or IFN-γ for 48 hours. Cells were lysed, the lysates clarified, and the protein concentration of the lysates was quantitated. Equal amounts of proteins in the lysates were separated by SDS-PAGE. After separation of the proteins by SDS-PAGE, the proteins were transferred to a membrane, and antibody to APOBEC3G was used to detect APOBEC3G protein on the membrane. The results are depicted in FIGS. 1-13.
FIG. 11 depicts the effect of PHA, anti-CD3 antibody, anti-CD28 antibody, and IL-15 on the level of APOBEC3G in peripheral blood lymphocytes. […] Western blot of cell lysates deriving from stimulated and unstimulated peripheral blood lymphocytes. PBLs were isolated from blood and then incubated with the indicated stimulant for 48 hours. Following separation of the proteins by SDS-PAGE, antibody to APOBEC3G was used to detect APOBEC3G protein. As a loading control, anti-β-actin was used to detect β-actin.

Test [3] has as its system Vif-induced degradation of APOBEC3G (26S proteasome) in H9 cells. Nature of the test: Proteasome inhibitor experiment in HIV-1 wt-infected or mock-infected H9 cells, immunoblot of whole cell lysates. The format is cell-based, human. The following applies: 0.25 μM; for APOBEC3G levels in infected cells compared to DMSO-treated cells: treated 16 hours, 44 hours after infection. The protocol:
as §1
To investigate whether the 26S proteasome might mediate the Vif-induced degradation of APOBEC3G, H9 cells were infected with HIV-1 wt or were mock-infected. […] Whole cell lysates were subsequently prepared by boiling the cells in Laemmli lysis buffer, followed by protein separation by SDS-PAGE and immunoblotting. As expected, APOBEC3G levels were much lower in the infected sample when compared to the uninfected sample (FIG. 8B, lanes 1 and 3).
as §2, with “APOBEC3G-HA levels were elevated in the presence of the proteasome inhibitors MG132, ALLN, and clasto-lactacystin-β-lactone (lanes 8-11), but not in the presence of calpain inhibitor III (lane 12).” left out
Background: Immunoblotting shows a protein as a band on a membrane.

“Also recorded” adds a separate entry of the source. Non-standard residues stand in square brackets, D forms with d. Residues, ends and D or L forms follow the SMILES beside them. *: point of attachment. Nle = CCCC[C@H](N)C(=O)O; Cbz = O=C(OCc1ccccc1)*

Regarding `CCCC[C@@H](C=O)NC(=O)[C@H](CC(C)C)NC(=O)[C@H](CC(C)C)NC(C)=O` [ALLN] (Ac-Leu-Leu-[Nle]-aldehyde), the “levels of APOBEC3G-HA in the presence of Vif compared to diluent control (0.1% DMSO)” value (shortened to “levels of APOBEC3G-HA … (0.1% DMSO)”) in test [1] (25 μM) is reported as “enhanced; also recorded: elevated”.

With `CC(C)[C@H](NC(=O)OCc1ccccc1)C(=O)N[C@H](C=O)Cc1ccccc1` [Calpain Inhibitor III] (Cbz-Val-Phe-aldehyde), the “levels of APOBEC3G-HA … (0.1% DMSO)” value in test [1] (50 μM) is “did not cause an increase”; in test [1] (50 μM, listed as calpain inhibitor III), “not”.

`CCCCCCCCCCCCCC(=O)O[C@@H]1[C@@H](C)[C@@]2(O)[C@@H](C=C(CO)C[C@]3(O)C(=O)C(C)=C[C@@H]23)[C@@H]2C(C)(C)[C@]12OC(C)=O` [PMA, phorbol-12-myristate-13-acetate]: the “level of APOBEC3G in peripheral blood lymphocytes” value in test [2] is given as “upregulated”.

On to `CC(C)[C@H](O)[C@@]12NC(=O)[C@H](C)[C@@H]1OC2=O` [clasto-Lactacystin-β-Lactone], for which the “levels of APOBEC3G-HA … (0.1% DMSO)” value is on record as “enhanced” in test [1] (110 μM, 20 μM) and “elevated” in test [1] (110 μM, 20 μM, listed as clasto-lactacystin-β-lactone).

Regarding `CC[C@H](C)[C@H](NC(=O)[C@H]([C@@H](C)CC)N(C)C(C)=O)C(=O)N[C@H](C(=O)N[C@@H](CC(C)C)C(=O)[C@@]1(C)CO1)[C@@H](C)O` [epoxomicin], in test [3] (HIV-1 wt-infected H9 cells, 16 hours), the Vif levels result was “increase”. Moreover, the “APOBEC3G levels in infected cells compared to DMSO-treated cells” value in test [3] (HIV-1 wt-infected H9 cells) is recorded as “elevated”; in test [3] (HIV-1 wt-infected H9 cells, listed as Epoxomicin) it was “increase”. In test [3] (mock-infected H9 cells, 16 hours), the “level of APOBEC3G in the uninfected cultures” value is reported as “did not appear to cause a similar increase”.

Consider `CC(=O)O[C@@]12C[C@@H](C)[C@@]3(O)[C@@H](C=C(CO)C[C@]4(O)C(=O)C(C)=C[C@@H]34)[C@@H]1C2(C)C` [prostratin, 12-deoxyphorbol-13-acetate], for which the “level of APOBEC3G in peripheral blood lymphocytes” value in test [2] is recorded as “upregulated”.

Regarding IL-15: cytokine, the “level of APOBEC3G in peripheral blood lymphocytes” value in test [2] is listed as “increased expression”.
